System: MV-4-11 cells
Assay: Gene expression microarray analysis (Affymetrix PrimeView) and GSEA
Assay type: cell-based, human
Set-up: RFU PODN (11730768_x_at) / Fold change /veh PODN (11730768_x_at) / RFU LINC00158 (11744669_a_at) / Fold change /veh LINC00158 (11744669_a_at) / RFU DUSP10 (11751237_a_at) / Fold change /veh DUSP10 (11751237_a_at) / RFU ID3 (11757404_x_at) / Fold change /veh ID3 (11757404_x_at) / RFU PLEKHG5 (11737974_s_at) / Fold change /veh PLEKHG5 (11737974_s_at) / RFU LRRC4B (11730491_at) / Fold change /veh LRRC4B (11730491_at) / RFU GIMAP4 (11747438_a_at) / Fold change /veh GIMAP4 (11747438_a_at) / RFU KRT8 (11758183_x_at) / Fold change /veh KRT8 (11758183_x_at) / RFU CNN1 (11734310_a_at) / Fold change /veh CNN1 (11734310_a_at) / RFU VPS37D (11726825_at) / Fold change /veh VPS37D (11726825_at) / RFU C10orf10 (11716522_x_at) / Fold change /veh C10orf10 (11716522_x_at) / RFU KIR2DL2 /// KIR2DL4 /// KIR2DL5A /// KIR2DL5B /// KIR2DS1 /// KIR2DS2 /// KIR2DS3 /// KIR2DS4 /// KIR3DL3 /// KIR3DL3 /// KIR3DS1 (11738374_at) / Fold change /veh KIR2DL2 /// KIR2DL4 /// KIR2DL5A /// KIR2DL5B /// KIR2DS1 /// KIR2DS2 /// KIR2DS3 /// KIR2DS4 /// KIR3DL3 /// KIR3DL3 /// KIR3DS1 (11738374_at) / RFU C1QL1 (11718748_at) / Fold change /veh C1QL1 (11718748_at) / RFU TMPRSS4 (11747572_a_at) / Fold change /veh TMPRSS4 (11747572_a_at) / RFU HAMP (11756126_x_at) / Fold change /veh HAMP (11756126_x_at) / RFU RNFT2 (11725882_a_at) / Fold change /veh RNFT2 (11725882_a_at) / RFU NR4A2 (11747474_a_at) / Fold change /veh NR4A2 (11747474_a_at) / RFU ABCC12 (11746883_a_at) / Fold change /veh ABCC12 (11746883_a_at) / RFU TMEM136 (11760407_x_at) / Fold change /veh TMEM136 (11760407_x_at) / RFU CLDN22 /// WWC2 (11732394_at) / Fold change /veh CLDN22 /// WWC2 (11732394_at) / RFU HLA-DPB1 (11760878_x_at) / Fold change /veh HLA-DPB1 (11760878_x_at) / RFU SPINT1 (11716480_a_at) / Fold change /veh SPINT1 (11716480_a_at) / RFU GAP43 (11754022_s_at) / Fold change /veh GAP43 (11754022_s_at) / RFU A4GNT (11735810_at) / Fold change /veh A4GNT (11735810_at) / RFU PRB3 (11715151_x_at) / Fold change /veh PRB3 (11715151_x_at) / RFU TUBB4B (11761932_at) / Fold change /veh TUBB4B (11761932_at) / RFU CAPN14 (11732068_a_at) / Fold change /veh CAPN14 (11732068_a_at) / RFU TMCC2 (11721928_a_at) / Fold change /veh TMCC2 (11721928_a_at) / RFU IRGQ (11745062_a_at) / Fold change /veh IRGQ (11745062_a_at) / RFU FAM174B (11720279_a_at) / Fold change /veh FAM174B (11720279_a_at) / RFU TMPRSS4 (11748680_a_at) / Fold change /veh TMPRSS4 (11748680_a_at) / RFU FAM212B (11763350_a_at) / Fold change /veh FAM212B (11763350_a_at) / RFU PLEKHG5 (11743358_a_at) / Fold change /veh PLEKHG5 (11743358_a_at) / RFU ZSCAN30 (11745921_a_at) / Fold change /veh ZSCAN30 (11745921_a_at) / RFU CMKLR1 (11741424_a_at) / Fold change /veh CMKLR1 (11741424_a_at) / RFU LOC101060620 /// MAPK8IP1 (11723275_at) / Fold change /veh LOC101060620 /// MAPK8IP1 (11723275_at) / RFU SPTSSB (11747773_x_at) / Fold change /veh SPTSSB (11747773_x_at) / RFU PRSS12 (11739890_at) / Fold change /veh PRSS12 (11739890_at) / RFU BIN1 (11741810_x_at) / Fold change /veh BIN1 (11741810_x_at) / RFU WNT11 (11732464_a_at) / Fold change /veh WNT11 (11732464_a_at) / RFU C10orf10 (11716521_a_at) / Fold change /veh C10orf10 (11716521_a_at) / RFU C5orf56 (11738089_at) / Fold change /veh C5orf56 (11738089_at) / RFU CYB561 (11721691_x_at) / Fold change /veh CYB561 (11721691_x_at) / RFU ANKRD19P (11752326_a_at) / Fold change /veh ANKRD19P (11752326_a_at) / RFU OR2T12 /// OR2T33 /// OR2T8 (11738714_s_at) / Fold change /veh OR2T12 /// OR2T33 /// OR2T8 (11738714_s_at) / RFU VCAN (11748164_a_at) / Fold change /veh VCAN (11748164_a_at) / RFU JSRP1 (11732532_at) / Fold change /veh JSRP1 (11732532_at) / RFU KRTAP10-11 (11738290_x_at) / Fold change /veh KRTAP10-11 (11738290_x_at) / RFU MYO3A (11730013_a_at) / Fold change /veh MYO3A (11730013_a_at) / RFU EBF3 (11725865_a_at) / Fold change /veh EBF3 (11725865_a_at) / RFU CAMK2N1 (11719241_x_at) / Fold change /veh CAMK2N1 (11719241_x_at) / RFU C5orf56 (11738088_a_at) / Fold change /veh C5orf56 (11738088_a_at) / RFU OLFML3 (11715873_a_at) / Fold change /veh OLFML3 (11715873_a_at) / RFU LOC100653217 /// NTM (11731650_a_at) / Fold change /veh LOC100653217 /// NTM (11731650_a_at) / RFU MAPK11 (11762145_a_at) / Fold change /veh MAPK11 (11762145_a_at) / RFU FIZ1 (11724087_x_at) / Fold change /veh FIZ1 (11724087_x_at) / RFU OASL (11726364_x_at) / Fold change /veh OASL (11726364_x_at) / RFU SOX15 (11748057_x_at) / Fold change /veh SOX15 (11748057_x_at) / RFU CD79A (11719716_a_at) / Fold change /veh CD79A (11719716_a_at) / RFU HIST1H1D (11736915_at) / Fold change /veh HIST1H1D (11736915_at) / RFU CASKIN2 (11723855_a_at) / Fold change /veh CASKIN2 (11723855_a_at) / RFU LOC730098 (11760151_x_at) / Fold change /veh LOC730098 (11760151_x_at) / RFU OR4N2 (11742367_at) / Fold change /veh OR4N2 (11742367_at) / RFU PRRT2 (11749266_a_at) / Fold change /veh PRRT2 (11749266_a_at) / RFU SNX32 (11753110_a_at) / Fold change /veh SNX32 (11753110_a_at) / RFU CDHR5 (11726645_a_at) / Fold change /veh CDHR5 (11726645_a_at) / RFU RCAN1 (11760418_a_at) / Fold change /veh RCAN1 (11760418_a_at) / RFU FAM167A (11723789_a_at) / Fold change /veh FAM167A (11723789_a_at) / RFU FAM26E (11764081_at) / Fold change /veh FAM26E (11764081_at) / RFU ISYNA1 (11749810_s_at) / Fold change /veh ISYNA1 (11749810_s_at) / RFU ACY1 (11761880_at) / Fold change /veh ACY1 (11761880_at) / RFU 11764098_at / Fold change /veh 11764098_at / RFU SAMD14 (11745864_x_at) / Fold change /veh SAMD14 (11745864_x_at) / RFU NPB (11741838_a_at) / Fold change /veh NPB (11741838_a_at) / RFU TMPRSS6 (11731388_a_at) / Fold change /veh TMPRSS6 (11731388_a_at) / RFU KRTAP10-2 (11738614_at) / Fold change /veh KRTAP10-2 (11738614_at) / RFU ARHGAP8 /// PRR5-ARHGAP8 (11727945_x_at) / Fold change /veh ARHGAP8 /// PRR5-ARHGAP8 (11727945_x_at) / RFU KRTAP5-7 /// NADSYN1 (11734609_at) / Fold change /veh KRTAP5-7 /// NADSYN1 (11734609_at) / RFU RASL12 (11751679_a_at) / Fold change /veh RASL12 (11751679_a_at) / RFU CDKN2B (11736163_a_at) / Fold change /veh CDKN2B (11736163_a_at) / RFU PRF1 (11729649_at) / Fold change /veh PRF1 (11729649_at) / RFU, ZNF638 /// ZNF638-IT1 / Fold change vs veh, ZNF638 /// ZNF638-IT1 / RFU, PANK3 / Fold change vs veh, PANK3 / RFU, SH3YL1 / Fold change vs veh, SH3YL1 / RFU, ZEB2 / Fold change vs veh, ZEB2 / RFU, NRIP1 / Fold change vs veh, NRIP1 / RFU, PTTG1IP / Fold change vs veh, PTTG1IP / RFU, CAPN2 / Fold change vs veh, CAPN2 / RFU, MED14 / Fold change vs veh, MED14 / RFU, SNORA58 / Fold change vs veh, SNORA58 / RFU, C1orf63 / Fold change vs veh, C1orf63 / RFU, LRRFIP1 / Fold change vs veh, LRRFIP1 / RFU, NDUFAF7 / Fold change vs veh, NDUFAF7 / RFU, SLC12A2 / Fold change vs veh, SLC12A2 / RFU, IBTK / Fold change vs veh, IBTK / RFU, ESF1 / Fold change vs veh, ESF1 / Fold change vs veh, TMEM50B / RFU, TAOK1 / Fold change vs veh, TAOK1 / RFU, ACBD3 / Fold change vs veh, ACBD3 / RFU, TMA16 / Fold change vs veh, TMA16 / RFU, RWDD3 / Fold change vs veh, RWDD3 / RFU, BCAT1 / Fold change vs veh, BCAT1 / RFU, EDEM3 / Fold change vs veh, EDEM3 / RFU, TMEM33 / Fold change vs veh, TMEM33 / RFU, WDR75 / Fold change vs veh, WDR75 / RFU, AHCTF1 / Fold change vs veh, AHCTF1 / RFU, TFRC / Fold change vs veh, TFRC / RFU, ZDHHC17 / Fold change vs veh, ZDHHC17 / RFU, NOM1 / Fold change vs veh, NOM1 / RFU, ARL8B / Fold change vs veh, ARL8B / RFU, ZBTB11 / Fold change vs veh, ZBTB11 / RFU, TAMM41 / Fold change vs veh, TAMM41 / RFU, KIAA1704 /// LOC100996395 / Fold change vs veh, KIAA1704 /// LOC100996395 / RFU, ING1 / Fold change vs veh, ING1 / RFU, TRMT61B / Fold change vs veh, TRMT61B / RFU, FUBP3 / Fold change vs veh, FUBP3 / RFU, TP53 / Fold change vs veh, TP53 / RFU, TNKS2 / Fold change vs veh, TNKS2 / RFU, ZFP14 / Fold change vs veh, ZFP14 / RFU, ACTR2 / Fold change vs veh, ACTR2 / RFU, PPP3R1 / Fold change vs veh, PPP3R1 / RFU, PIK3R1 / Fold change vs veh, PIK3R1 / RFU, HNRNPA1 / Fold change vs veh, HNRNPA1 / RFU, RNF170 / Fold change vs veh, RNF170 / RFU, ZNF28 / Fold change vs veh, ZNF28 / RFU, RNGTT / Fold change vs veh, RNGTT / RFU, OGT / Fold change vs veh, OGT / RFU, BRD1 / Fold change vs veh, BRD1 / RFU, MARS / Fold change vs veh, MARS / RFU, ZNF655 / Fold change vs veh, ZNF655 / RFU, FAHD1 / Fold change vs veh, FAHD1 / RFU, BDP1 / Fold change vs veh, BDP1 / RFU, LRRCC1 / Fold change vs veh, LRRCC1 / RFU, ARID1A / Fold change vs veh, ARID1A / RFU, ZNF146 / Fold change vs veh, ZNF146 / RFU, ZNF330 / Fold change vs veh, ZNF330 / RFU, GPN3 / Fold change vs veh, GPN3 / RFU, C9orf123 / Fold change vs veh, C9orf123 / RFU, N4BP2L2 / Fold change vs veh, N4BP2L2 / RFU, ARFIP1 / Fold change vs veh, ARFIP1 / RFU, FAM179B / Fold change vs veh, FAM179B / RFU, BCL10 / Fold change vs veh, BCL10 / RFU, UHRF1BP1L / Fold change vs veh, UHRF1BP1L / RFU, BET1 / Fold change vs veh, BET1 / RFU, CNOT2 / Fold change vs veh, CNOT2 / RFU, ZNF268 / Fold change vs veh, ZNF268 / Fold change vs veh, ZNF507 / RFU, DGCR2 / Fold change vs veh, DGCR2 / RFU, WDSUB1 / Fold change vs veh, WDSUB1 / Fold change vs veh, HSP90B1 /// MIR3652 / RFU, ADSS / Fold change vs veh, ADSS / RFU, GK / Fold change vs veh, GK / RFU, ZNF148 / Fold change vs veh, ZNF148 / RFU, TAF9 / Fold change vs veh, TAF9 / RFU, SLC1A5 / Fold change vs veh, SLC1A5 / RFU, SLMO2 / Fold change vs veh, SLMO2 / RFU, ABCC4 / Fold change vs veh, ABCC4 / RFU, LOC101060439 /// RAP1B / Fold change vs veh, LOC101060439 /// RAP1B / RFU, RFX7 / Fold change vs veh, RFX7 / RFU, GTPBP10 / Fold change vs veh, GTPBP10 / RFU, CNEP1R1 / Fold change vs veh, CNEP1R1 / RFU, BIVM-ERCC5 /// ERCC5 / Fold change vs veh, BIVM-ERCC5 /// ERCC5 / RFU, ILF3 / Fold change vs veh, ILF3 / RFU 11762660_at / Fold change /veh 11762660_at / RFU VCAN (11757783_s_at) / Fold change /veh VCAN (11757783_s_at) / RFU DDX43 (11728927_at) / Fold change /veh DDX43 (11728927_at) / RFU KRT8 (11758188_x_at) / Fold change /veh KRT8 (11758188_x_at) / RFU NKD1 (11759106_at) / Fold change /veh NKD1 (11759106_at) / RFU SRD5A1 (11742802_a_at) / Fold change /veh SRD5A1 (11742802_a_at) / RFU TPSAB1 /// TPSB2 (11721975_s_at) / Fold change /veh TPSAB1 /// TPSB2 (11721975_s_at) / RFU GSTM3 (11746129_a_at) / Fold change /veh GSTM3 (11746129_a_at) / RFU IL23R (11737362_x_at) / Fold change /veh IL23R (11737362_x_at) / RFU TMEM51 (11727254_a_at) / Fold change /veh TMEM51 (11727254_a_at) / RFU PIWIL2 (11732686_x_at) / Fold change /veh PIWIL2 (11732686_x_at) / RFU ORM1 (11744905_x_at) / Fold change /veh ORM1 (11744905_x_at) / RFU CCDC152 (11743942_at) / Fold change /veh CCDC152 (11743942_at) / RFU ECM1 (11717891_a_at) / Fold change /veh ECM1 (11717891_a_at) / RFU IL23R (11748794_a_at) / Fold change /veh IL23R (11748794_a_at) / RFU TNFAIP8L3 (11732012_x_at) / Fold change /veh TNFAIP8L3 (11732012_x_at) / RFU MBOAT4 (11741988_at) / Fold change /veh MBOAT4 (11741988_at) / RFU 11764193_at / Fold change /veh 11764193_at / RFU TMEM53 (11763286_at) / Fold change /veh TMEM53 (11763286_at) / RFU MAGEB2 (11727129_at) / Fold change /veh MAGEB2 (11727129_at) / RFU TMEM200A (11744735_a_at) / Fold change /veh TMEM200A (11744735_a_at) / RFU CCDC152 (11751479_a_at) / Fold change /veh CCDC152 (11751479_a_at) / RFU FAM211A (11726209_a_at) / Fold change /veh FAM211A (11726209_a_at) / RFU RGS16 (11746705_a_at) / Fold change /veh RGS16 (11746705_a_at) / RFU VCAN (11755009_s_at) / Fold change /veh VCAN (11755009_s_at) / RFU RHOB (11743442_s_at) / Fold change /veh RHOB (11743442_s_at) / RFU RGS16 (11720943_a_at) / Fold change /veh RGS16 (11720943_a_at) / RFU RGS16 (11720944_at) / Fold change /veh RGS16 (11720944_at) / RFU, VPS4B / Fold change vs veh, VPS4B / RFU, CREB1 / Fold change vs veh, CREB1 / RFU, DNAJC13 / Fold change vs veh, DNAJC13 / RFU, GNAQ / Fold change vs veh, GNAQ / RFU, CDK5R1 / Fold change vs veh, CDK5R1 / RFU, ZRANB3 / Fold change vs veh, ZRANB3 / RFU, CUL4A / Fold change vs veh, CUL4A / RFU, CCNY / Fold change vs veh, CCNY / RFU, UFL1 / Fold change vs veh, UFL1 / RFU, COG3 / Fold change vs veh, COG3 / RFU, DIAPH2 / Fold change vs veh, DIAPH2 / RFU, SKA2 / Fold change vs veh, SKA2 / RFU, AFF3 / Fold change vs veh, AFF3 / RFU, LMF1 / Fold change vs veh, LMF1 / RFU, IPO11 / Fold change vs veh, IPO11 / RFU, DFFB / Fold change vs veh, DFFB / RFU, FOXP1 / Fold change vs veh, FOXP1 / RFU, CARD8 / Fold change vs veh, CARD8 / RFU, STRN3 / Fold change vs veh, STRN3 / RFU, ADK / Fold change vs veh, ADK / RFU, RASSF2 / Fold change vs veh, RASSF2 / RFU, WIPF1 / Fold change vs veh, WIPF1 / RFU, LARP1B / Fold change vs veh, LARP1B / RFU, RASA1 / Fold change vs veh, RASA1 / RFU, RB1 / Fold change vs veh, RB1 / RFU, PPFIA1 / Fold change vs veh, PPFIA1 / RFU, MAT2A / Fold change vs veh, MAT2A / RFU, CCT5 / Fold change vs veh, CCT5 / RFU, WDR92 / Fold change vs veh, WDR92 / RFU, CUX1 / Fold change vs veh, CUX1 / RFU, TTC7A / Fold change vs veh, TTC7A / RFU, TMEM135 / Fold change vs veh, TMEM135 / RFU, DEPTOR / Fold change vs veh, DEPTOR / RFU, CPM / Fold change vs veh, CPM / RFU, DNAJB6 / Fold change vs veh, DNAJB6 / RFU, CACNA2D3 / Fold change vs veh, CACNA2D3 / RFU, DTX4 / Fold change vs veh, DTX4 / RFU, TFCP2 / Fold change vs veh, TFCP2 / RFU, GMCL1 /// GMCL1P1 / Fold change vs veh, GMCL1 /// GMCL1P1 / RFU, AEBP2 / Fold change vs veh, AEBP2 / RFU, SNHG1 /// SNORD22 /// SNORD25 /// SNORD26 /// SNORD27 /// SNORD28 /// SNORD29 /// SNORD31 / Fold change vs veh, SNHG1 /// SNORD22 /// SNORD25 /// SNORD26 /// SNORD27 /// SNORD28 /// SNORD29 /// SNORD31 / Fold change (Aza/veh), C12orf56 (ProbeSet 11735607_a_at) / Fold change (ACY-1035/veh), C12orf56 (ProbeSet 11735607_a_at) / Fold change (Aza/veh), FGFR1OP (ProbeSet 11751329_s_at) / Fold change (ACY-1035/veh), FGFR1OP (ProbeSet 11751329_s_at) / Fold change (Aza/veh), VPS36 (ProbeSet 11739960_a_at) / Fold change (ACY-1035/veh), VPS36 (ProbeSet 11739960_a_at) / RFU SYPL1 (11715823_x_at) / Fold change /veh SYPL1 (11715823_x_at) / RFU IGFBP7 (11715501_s_at) / Fold change /veh IGFBP7 (11715501_s_at) / RFU REEP3 (11722064_at) / Fold change /veh REEP3 (11722064_at) / RFU IGLL1 (11728026_x_at) / Fold change /veh IGLL1 (11728026_x_at): dose or concentration left out as unconfirmed
Conditions: ProbeSet 11755425_a_at; LIST B

In the case of `Nc1ccc(-c2cccs2)cc1NC(=O)c1ccc2c(c1)cc(C1CC1)n2CCN1CCOCC1` [ACY-1035], the “Fold change vs veh, FAM179B” value is reported as 1.02.
